Measured values from the supplement of paper PMC10307832.

Legend:
Assay in all cases: relative viability (nuclei count vs DMSO), 5 days (fraction); higher = more cells survive
ABC-1 = test system: ABC-1
How it was run: (§1)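 Each reported value is a median over duplicate plates. It expresses relative viability: treated-well nuclei count divided by vehicle-well nuclei count. Lung cancer cell lines in 1536-well plates were dosed by pin tool a day after seeding, alone with one drug or with a fixed anchor-drug dose plus five library-drug doses (not always all listed) in √10 steps, and nuclei were counted after 5 days.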

CAL-12T = test system: CAL-12T
How it was run: as §1

ChaGo-K-1 = test system: ChaGo-K-1
How it was run: as §1

HCC-366 = test system: HCC-366
How it was run: as §1

HCC-78 = test system: HCC-78
How it was run: as §1

LC-2-ad = test system: LC-2-ad
How it was run: as §1

LOU-NH91 = test system: LOU-NH91
How it was run: as §1

LU99A = test system: LU99A
How it was run: as §1

NCI-H1395 = test system: NCI-H1395
How it was run: as §1

NCI-H1651 = test system: NCI-H1651
How it was run: as §1

NCI-H1755 = test system: NCI-H1755
How it was run: as §1

NCI-H1793 = test system: NCI-H1793
How it was run: as §1

NCI-H1944 = test system: NCI-H1944
How it was run: as §1

NCI-H2087 = test system: NCI-H2087
How it was run: as §1

NCI-H2170 = test system: NCI-H2170
How it was run: as §1

NCI-H2228 = test system: NCI-H2228
How it was run: as §1

NCI-H2405 = test system: NCI-H2405
How it was run: as §1

NCI-H3122 = test system: NCI-H3122
How it was run: as §1

NCI-H460 = test system: NCI-H460
How it was run: as §1

PC-3 [JPC-3] = test system: PC-3 [JPC-3]
How it was run: as §1

RERF-LC-KJ = test system: RERF-LC-KJ
How it was run: as §1

UMC-11 = test system: UMC-11
How it was run: as §1

COc1nc(C)cnc1NS(=O)(=O)c1cccnc1-c1ccc(-c2nnco2)cc1 [Zibotentan] + Cc1cc(Nc2cc(N3CCN(C)CC3)nc(Sc3ccc(NC(=O)C4CC4)cc3)n2)n[nH]1 [Tozasertib] (partner 0.1 µM)
relative viability (ABC-1; first compound 0.08 µM): 0.175
relative viability (ABC-1; first compound 0.253 µM): 0.163
relative viability (ABC-1; first compound 0.8 µM): 0.193
relative viability (ABC-1; first compound 2.53 µM): 0.201
relative viability (CAL-12T; first compound 0.08 µM): 0.268
relative viability (CAL-12T; first compound 0.253 µM): 0.289
relative viability (CAL-12T; first compound 0.8 µM): 0.351
relative viability (CAL-12T; first compound 2.53 µM): 0.31
relative viability (ChaGo-K-1; first compound 0.08 µM): 0.208
relative viability (ChaGo-K-1; first compound 0.253 µM): 0.218
relative viability (ChaGo-K-1; first compound 0.8 µM): 0.21
relative viability (ChaGo-K-1; first compound 2.53 µM): 0.24
relative viability (HCC-366; first compound 0.08 µM): 0.132
relative viability (HCC-366; first compound 0.253 µM): 0.0914
relative viability (HCC-366; first compound 0.8 µM): 0.0627
relative viability (HCC-366; first compound 2.53 µM): 0.156
relative viability (HCC-78; first compound 0.08 µM): 0.526
relative viability (HCC-78; first compound 0.253 µM): 0.393
relative viability (HCC-78; first compound 0.8 µM): 0.306
relative viability (HCC-78; first compound 2.53 µM): 0.435
relative viability (LC-2-ad; first compound 0.08 µM): 0.436
relative viability (LC-2-ad; first compound 0.8 µM): 0.574
relative viability (LC-2-ad; first compound 2.53 µM): 0.452
relative viability (LOU-NH91; first compound 0.08 µM): 0.729
relative viability (LOU-NH91; first compound 0.253 µM): 0.586
relative viability (LOU-NH91; first compound 0.8 µM): 0.722
relative viability (LOU-NH91; first compound 2.53 µM): 0.669
relative viability (LU99A; first compound 0.08 µM): 0.319
relative viability (LU99A; first compound 0.253 µM): 0.25
relative viability (LU99A; first compound 0.8 µM): 0.302
relative viability (LU99A; first compound 2.53 µM): 0.301
relative viability (NCI-H1395; first compound 0.08 µM): 0.74
relative viability (NCI-H1395; first compound 0.253 µM): 0.762
relative viability (NCI-H1395; first compound 0.8 µM): 0.733
relative viability (NCI-H1395; first compound 2.53 µM): 0.794
relative viability (NCI-H1651; first compound 0.08 µM): 0.678
relative viability (NCI-H1651; first compound 0.253 µM): 0.552
relative viability (NCI-H1651; first compound 0.8 µM): 0.767
relative viability (NCI-H1651; first compound 2.53 µM): 0.717
relative viability (NCI-H1755; first compound 0.08 µM): 0.475
relative viability (NCI-H1755; first compound 0.253 µM): 0.58
relative viability (NCI-H1755; first compound 0.8 µM): 0.602
relative viability (NCI-H1755; first compound 2.53 µM): 0.657
relative viability (NCI-H1793; first compound 0.08 µM): 0.336
relative viability (NCI-H1793; first compound 0.253 µM): 0.352
relative viability (NCI-H1793; first compound 0.8 µM): 0.273
relative viability (NCI-H1793; first compound 2.53 µM): 0.3
relative viability (NCI-H1944; first compound 0.08 µM): 0.252
relative viability (NCI-H1944; first compound 0.253 µM): 0.236
relative viability (NCI-H1944; first compound 0.8 µM): 0.242
relative viability (NCI-H1944; first compound 2.53 µM): 0.271
relative viability (NCI-H2087; first compound 0.08 µM): 0.249
relative viability (NCI-H2087; first compound 0.253 µM): 0.268
relative viability (NCI-H2087; first compound 0.8 µM): 0.249
relative viability (NCI-H2087; first compound 2.53 µM): 0.238
relative viability (NCI-H2170; first compound 0.08 µM): 0.789
relative viability (NCI-H2170; first compound 0.253 µM): 0.693
relative viability (NCI-H2170; first compound 0.8 µM): 0.809
relative viability (NCI-H2170; first compound 2.53 µM): 0.741
relative viability (NCI-H2228; first compound 0.08 µM): 0.266
relative viability (NCI-H2228; first compound 0.253 µM): 0.239
relative viability (NCI-H2228; first compound 0.8 µM): 0.212
relative viability (NCI-H2228; first compound 2.53 µM): 0.258
relative viability (NCI-H2405; first compound 0.08 µM): 0.747
relative viability (NCI-H2405; first compound 0.253 µM): 0.716
relative viability (NCI-H2405; first compound 0.8 µM): 0.798
relative viability (NCI-H2405; first compound 2.53 µM): 0.77
relative viability (NCI-H3122; first compound 0.08 µM): 0.399
relative viability (NCI-H3122; first compound 0.8 µM): 0.361
relative viability (NCI-H3122; first compound 2.53 µM): 0.413
relative viability (NCI-H460; first compound 0.08 µM): 0.625
relative viability (NCI-H460; first compound 0.253 µM): 0.158
relative viability (NCI-H460; first compound 0.8 µM): 0.106
relative viability (NCI-H460; first compound 2.53 µM): 0.385
relative viability (PC-3 [JPC-3]; first compound 0.08 µM): 0.869
relative viability (PC-3 [JPC-3]; first compound 0.253 µM): 0.903
relative viability (PC-3 [JPC-3]; first compound 0.8 µM): 0.853
relative viability (PC-3 [JPC-3]; first compound 2.53 µM): 0.878
relative viability (RERF-LC-KJ; first compound 0.08 µM): 0.479
relative viability (RERF-LC-KJ; first compound 0.8 µM): 0.562
relative viability (RERF-LC-KJ; first compound 2.53 µM): 0.493
relative viability (UMC-11; first compound 0.08 µM): 0.23
relative viability (UMC-11; first compound 0.253 µM): 0.204
relative viability (UMC-11; first compound 0.8 µM): 0.201
relative viability (UMC-11; first compound 2.53 µM): 0.203
